# Laboratory results taken from patent publication US9546176B2, “Small molecule bicyclic and tricyclic CFTR correctors” (DISCOVERYBIOMED, INC., priority 2012, dated 2017).
# pEC50: −log10 of the molar value.
# Assays:
# delF508-CFTR = target: T1, delF508-CFTR (Homo sapiens, UniProt P13569, DEL508-508); assay: SPQ halide-sensitive fluorescence dye assay for rescue of halide efflux (8-point concentration-response); type: cell-based
# T1 construct: endogenous in cells; host or cells: CFBE41o- human CF bronchial epithelial cells (delF508 homozygous)
# Summary of the method: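 CFBE41o- cells loaded with SPQ were incubated with compounds (10 μM in triplicate; 8-point concentration-response for EC50) for 48 h at room temperature. Baseline fluorescence was read in NaCl Ringer, then NaCl was replaced by NaNO3 Ringer and read over four minutes. ΔSPQ is the difference between maximum and minimum SPQ values.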
# [1] = target: T2, delF508-CFTR chloride ion channels (Homo sapiens, UniProt P13569, DEL508-508); assay: Ussing chamber short-circuit current in high-resistance CF human airway epithelial cell monolayer; type: cell-based; conditions: FIG. 15
# T2 construct: delF508-CFTR chloride ion channels in a high-resistance CF human airway epithelial cell monolayer with Compound 1; endogenous in cells
# Experimental: An electrical assay was also performed to determine the functional rescue of delF508-CFTR to the apical cell membrane in a polarized epithelium using the compounds described herein. The metrics analyzed were the basal short-circuit Cl^− current, the change or delta Cl^− current stimulated by forskolin, the total stimulated Cl^− current (basal and forskolin), and the change or delta Cl^− current inhibited by GlyH101. For exemplary purposes, DMSO (100 nM) and VX-809 (100 nM equivalent) treatments were controls, and a CFCL corrector was tested (see FIG. 14).
# Only high-resistance cell monolayers (>800 to 1,000 Ohms per cm^2) were used in the experiments. Basal short-circuit current (ISC) was measured and documented. Amiloride was added to the apical side of the Ussing chamber to block any contribution of ENaC or other sodium or cation channels under basal or stimulated conditions. The effect of amiloride was negligible under these cell culture conditions. In the continued presence of amiloride (100 μM), forskolin (10 μM) was added to both sides of the monolayer to selectively open any delF508-CFTR chloride channels in the apical cell membrane. This activation step uncovered any remaining corrected delF508-CFTR chloride ion channels in the apical membrane of the polarized CF human bronchial epithelium. […]
# T1 sequence (P13569 with tags, fused parts or gaps DEL508-508): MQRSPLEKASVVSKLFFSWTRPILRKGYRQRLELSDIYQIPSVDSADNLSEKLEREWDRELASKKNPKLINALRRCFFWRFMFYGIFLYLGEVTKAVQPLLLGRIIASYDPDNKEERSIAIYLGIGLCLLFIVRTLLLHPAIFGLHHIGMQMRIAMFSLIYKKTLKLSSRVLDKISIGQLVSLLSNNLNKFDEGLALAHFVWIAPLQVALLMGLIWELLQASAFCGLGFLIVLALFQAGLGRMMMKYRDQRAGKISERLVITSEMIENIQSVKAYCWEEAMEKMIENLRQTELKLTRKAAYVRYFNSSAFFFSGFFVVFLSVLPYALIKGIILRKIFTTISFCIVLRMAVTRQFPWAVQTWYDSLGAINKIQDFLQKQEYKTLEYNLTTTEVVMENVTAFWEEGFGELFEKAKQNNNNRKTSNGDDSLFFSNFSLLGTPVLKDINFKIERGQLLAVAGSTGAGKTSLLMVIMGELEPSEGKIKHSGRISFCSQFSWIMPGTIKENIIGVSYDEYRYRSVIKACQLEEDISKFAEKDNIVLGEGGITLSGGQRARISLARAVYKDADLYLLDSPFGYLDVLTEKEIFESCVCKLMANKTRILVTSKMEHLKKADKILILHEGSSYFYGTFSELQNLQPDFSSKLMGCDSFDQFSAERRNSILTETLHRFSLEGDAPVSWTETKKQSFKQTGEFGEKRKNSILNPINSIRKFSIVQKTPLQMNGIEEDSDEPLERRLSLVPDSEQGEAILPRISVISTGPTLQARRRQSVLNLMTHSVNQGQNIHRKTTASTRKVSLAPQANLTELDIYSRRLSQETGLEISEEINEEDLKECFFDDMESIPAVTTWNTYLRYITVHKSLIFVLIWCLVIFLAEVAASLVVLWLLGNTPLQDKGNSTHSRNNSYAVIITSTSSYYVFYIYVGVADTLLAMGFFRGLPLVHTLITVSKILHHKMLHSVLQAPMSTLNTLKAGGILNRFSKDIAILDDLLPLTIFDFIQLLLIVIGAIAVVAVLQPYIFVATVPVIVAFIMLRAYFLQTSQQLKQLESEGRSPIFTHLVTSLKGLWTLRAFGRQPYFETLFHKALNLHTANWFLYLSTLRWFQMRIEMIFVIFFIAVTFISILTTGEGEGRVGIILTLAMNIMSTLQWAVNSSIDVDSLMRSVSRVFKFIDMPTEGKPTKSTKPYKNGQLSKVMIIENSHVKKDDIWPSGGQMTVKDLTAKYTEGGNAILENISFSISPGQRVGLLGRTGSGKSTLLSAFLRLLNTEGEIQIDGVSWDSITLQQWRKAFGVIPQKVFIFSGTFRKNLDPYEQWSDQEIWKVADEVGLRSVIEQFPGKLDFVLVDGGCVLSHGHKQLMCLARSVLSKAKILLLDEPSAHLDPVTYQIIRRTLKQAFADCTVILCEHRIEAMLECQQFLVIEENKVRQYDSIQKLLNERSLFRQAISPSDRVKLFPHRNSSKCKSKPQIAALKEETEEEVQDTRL
# T2 sequence (P13569 with tags, fused parts or gaps DEL508-508): as above
structure (smiles),measurement,setting,value
CC1(C)Cc2c(sc3c2c(=O)n(CCO)c(=O)n3Cc2ccccc2)CO1 [Compound 1],pEC50,delF508-CFTR,5.46
same,ΔSPQ (difference between maximum and minimum SPQ values),"delF508-CFTR; CFBE41o- cells, 48 h",8345 RFU
same,potency and efficacy compared with VX-809 in SPQ assay,delF508-CFTR; versus VX-809,superior potency and efficacy to VX-809
same,"potency and efficacy versus VX-809, short-circuit current",[1],superior potency and equivalent efficacy versus VX-809
